The text below walks through data of ChEMBL document CHEMBL1152318, “Antitumor psoropermum xanthones and sarcomelicope acridones: privileged structures implied in DNA alkylation” (J Nat Prod, 2009).

Molecules are shown by their SMILES.

In assay [1] the test system is L1210. Kind of assay: Ratio of IC50 for human KB-3-1 cells to IC50 for mouse L1210 cells. Format: functional.
In assay [2] the test system is L1210. Kind of assay: Ratio of acronycine IC50 to compound IC50 for mouse L1210 cells. The format is functional.
A further assay deals with HeLa. Kind of assay: Cytotoxicity against human HeLa cells by MTT assay. The format is functional, cell-based. On the technique in general: Formazan colour is commonly taken as a measure of viable cells.
A further assay has as its system MCF7. Briefly: Cytotoxicity against human MCF7 cells by MTT assay. The format is functional, cell-based.
For the next assay, the system named is A-431. Briefly: Cytotoxicity against human A431 cells by MTT assay. Format: functional, cell-based.
For assay [3], the system named is P388. Briefly: Antitumor activity against mouse P388 cells xenografted in B6D2F1 mouse assessed as median survival at 200 mg/kg, ip relative to control. Format: functional. The conditions noted are these: route intraperitoneal.
Assay [4] deals with MC-38. Kind of assay: Antitumor activity against […] cells […] in B6D2F1 mouse assessed as tumor growth at 200 mg/kg, ip relative to control. Format: functional. Conditions: route intraperitoneal. A general note: A xenograft is tissue or cells of one species grown in another, often human tumour cells in immunodeficient mice; call rule not given here.
Assay [5] can be described thus: Cytotoxicity against human 9KB cells. Format: functional, cell-based.
Assay [6] deals with P388. Kind of assay: In vivo cytotoxicity against mouse P388 cells at 8 mg/kg relative to control. The format is functional.
The subject of a further assay is HCT-116. Briefly: Cytotoxicity against human HCT116 cells. The format is functional, cell-based.
In the next assay the test system is SGC-7901. Briefly: Cytotoxicity against human SGC7901 cells. The format is functional, cell-based.
The next assay relates to SMMC-7721. Kind of assay: Cytotoxicity against human SMMC7721 cells. The format is functional, cell-based.
Assay [7] concerns MC-38. Briefly: Antitumor activity against […] cells […] in B6D2F1 mouse assessed as inhibition of tumor growth at 6.25 mg/kg, ip. Format: functional. Conditions: MC-38, ip, route intraperitoneal, read-out: TGI.
The next assay deals with OVCAR-3. Kind of assay: Antitumor activity against human OVCAR-3 cells xenografted in BALB/c nude mouse assessed as increase in survival administered twice by intravenous route. The format is functional, cell-based.
Assay [8] relates to NCI-H460. Kind of assay: Antitumor activity against human NCI-H460 cells xenografted in BALB/c nude mouse administered twice 6.25 mg/kg, iv relative to control. Format: functional.
A further assay has as its system A549. Briefly: Antitumor activity against human A549 cells xenografted in BALB/c nude mouse assessed as increase in survival administered twice by intravenous route. The format is functional, cell-based.
Assay [9] has as its system NCI-H460. Kind of assay: Antitumor activity against human NCI-H460 cells xenografted in BALB/c nude mouse assessed as increase in survival administered twice by intravenous route. Format: functional, cell-based.
The subject of assay [10] is IGROV-1. Kind of assay: Antitumor activity against human IGROV1 cells xenografted in BALB/c nude mouse administered twice 6.25 mg/kg, iv relative to control. Format: functional.
In assay [11] the test system is P388. Briefly: Antitumor activity against mouse P388 cells xenografted in B6D2F1 mouse assessed as median survival at 12.5 mg/kg, ip relative to control. Format: functional. The conditions noted are these: route intraperitoneal.
The test system of assay [12] is MC-38. Kind of assay: Antitumor activity against […] cells […] in B6D2F1 mouse assessed as tumor growth at 6.25 mg/kg, ip relative to control. The conditions noted are these: route intraperitoneal. Format: functional.
Assay [13] concerns IGROV-1. Briefly: Antitumor activity against human IGROV1 cells xenografted in BALB/c nude mouse assessed as increase in survival administered twice by intravenous route. The format is functional, cell-based.
The subject of assay [14] is P388. Kind of assay: Antitumor activity against mouse P388 cells xenografted in B6D2F1 mouse assessed as median survival at 50 mg/kg, ip relative to control. The format is functional. Conditions: route intraperitoneal.
Assay [15] deals with MC-38. Briefly: Antitumor activity against […] cells […] in B6D2F1 mouse assessed as tumor growth at 12.5 mg/kg, ip relative to control. Format: functional. The conditions noted are these: route intraperitoneal.
The test system of assay [16] is L1210. Kind of assay: Cytotoxicity against mouse L1210 cells. Format: functional, cell-based.
Assay [17] is described as follows: Cytotoxicity against human KB-3-1 cells. Format: functional, cell-based.
For assay [18], the system named is P388. Kind of assay: Antitumor activity against mouse P388 cells xenografted in B6D2F1 mouse assessed as median survival at 25 mg/kg, ip relative to control. Format: functional. The conditions noted are these: route intraperitoneal.
The mark [19] stands for this setting: Homo sapiens, HeLa, read-out: IC50.
Setting [20] is: Homo sapiens, A-431, read-out: IC50.

As for `COc1cc2c(c3c1c(=O)c1c4ccccc4ccc1n3C)[C@@H](OC(=O)CC(C)C)[C@@H](OC(=O)CC(C)C)C(C)(C)O2` (racemic), in the assay with L1210 [1], the “Ratio IC50” value is listed as 3.
Take `COc1cc2c(c3c1c(=O)c1c4ccccc4ccc1n3C)[C@@H](OC(C)=O)[C@@H](OC(=O)CC(C)C)C(C)(C)O2` (racemic): in the assay with L1210 [1], the “Ratio IC50” value is reported as 3.
As for `COc1cc2c(c3c1c(=O)c1c4ccccc4ccc1n3C)C=CC(C)(C)O2` [BENZO[A]ACRONYCINE], the “Ratio IC50” value in the assay with L1210 [2] was 4.
In general, IC50 refers to the concentration that gives 50% inhibition. `COCC(C)(O)C1Cc2c(cc(O)c3c(=O)c4ccccc4n(C)c23)O1` (centres undefined) [GRAVACRIDONDIOLMONOMETHYL ETHER]: the IC50 in the assay on HeLa (setting [19]), with MCF7 and in the assay on A-431 (setting [20]) was 3000 nM throughout.
What is called T/C is the ratio of treated to control. Turning to `COc1cc2c(c3c1c(=O)c1ccccc1n3C)C=CC(C)(C)O2` [ACRONINE], the T/C with P388 [3] stood at 125%; in the assay on MC-38 [4] it was 4%.
`COc1cc2c(c3oc4c(O)cccc4c(=O)c13)C[C@H]([C@@]1(C)CO1)O2` [PSOROSPERMIN]: in assay [5], it took 290 nM to reach half-maximal inhibition (IC50). The T/C in the assay with P388 [6] worked out at 158%.
Consider `C=CC(C)(C)c1c(O)cc(O)c2c(=O)c3c(CC=C(C)C)c(O)c(O)cc3oc12` [CUDRATRICUSXANTHONE A], for which the IC50 with HCT-116, in the assay on SGC-7901 and in the assay on SMMC-7721 was 4000 nM in each case.
On to `COc1cc2c(c3c1c(=O)c1cc4ccccc4cc1n3C)C=CC(C)(C)O2` [BENZO[B]ACRONYCINE], for which, in the assay on L1210 [2], the “Ratio IC50” value turned out to be 4.
In the case of `COc1cc2c(c3c1c(=O)c1cc4ccccc4cc1n3C)[C@@H](OC(C)=O)[C@@H](OC(C)=O)C(C)(C)O2` (racemic), the inhibition in vivo at 6.25 mg/kg with MC-38 [7] amounted to 96%. Moreover, the Activity result in the assay on OVCAR-3, in the assay with A549, in the assay on NCI-H460 [9] and in the assay with IGROV-1 [13] was “Dose-dependent effect” throughout. The T/C with NCI-H460 [8] was 162%; with IGROV-1 [10] it was 193%; in the assay with P388 [11] it was 327%; in the assay with MC-38 [12], 4%. Besides, the “Ratio IC50” value with L1210 [1] worked out at 3.
As for `COc1cc2c(c3c1c(=O)c1ccccc1n3C)[C@@H](OC(C)=O)[C@@H](OC(=O)c1ccccc1)C(C)(C)O2` (racemic), the T/C in the assay with P388 [14] was 201%; with MC-38 [15], 13%. Further, the “Ratio IC50” value with L1210 [2] turned out to be 5.
In the case of `COc1cc2c(c3c1c(=O)c1ccc4ccccc4c1n3C)C=CC(C)(C)O2` [BENZO[C]ACRONYCINE], the IC50 in the assay on L1210 [16] stood at 12100 nM.
Regarding `COc1cc2c(c3c1c(=O)c1c4ccccc4ccc1n3C)[C@@H](OC(C)=O)[C@@H](OC(C)=O)C(C)(C)O2` (racemic), the “Ratio IC50” value in the assay on L1210 [1] came to 3.
Take `COc1cc2c(c3c1c(=O)c1cc4ccccc4cc1n3C)C[C@H]([C@@]1(C)CO1)O2`: the IC50 (with L1210 [16]; in assay [17]) was 10 nM throughout.
For `COc1cc2c(c3c1c(=O)c1ccccc1n3C)[C@@H](OC(C)=O)[C@@H](OC(C)=O)C(C)(C)O2` (racemic), the T/C is recorded as 0% with MC-38 [15] and 289% in the assay with P388 [18]. In addition, the “Ratio IC50” value in the assay on L1210 [2] came to 5.
Regarding `COc1cc2c(c3c1c(=O)c1cc4ccccc4cc1n3C)[C@@H](OC(=O)CC(C)C)[C@@H](OC(=O)CC(C)C)C(C)(C)O2` (racemic), the “Ratio IC50” value in the assay on L1210 [1] amounted to 3.
As to `COc1cc2c(c3c1c(=O)c1ccccc1n3C)[C@@H](OC(C)=O)[C@H](OC(C)=O)C(C)(C)O2` (racemic), the T/C in the assay with P388 [11] is given as 181%.
With `Cn1c2ccccc2c(=O)c2c(O)cc3c(c21)CC(C(C)(O)CO)O3` (centres undefined) [GRAVACRIDONDIOL], the half-maximal inhibitory concentration (IC50) in the assay with HeLa (setting [19]), in the assay with MCF7 and in the assay on A-431 (setting [20]) was 3000 nM in each case.
On to `CCC(=O)O[C@@H]1c2c(cc(OC)c3c(=O)c4c5ccccc5ccc4n(C)c23)OC(C)(C)[C@@H]1OC(=O)CC` (racemic), for which the “Ratio IC50” value in the assay with L1210 [1] amounted to 3.
As to `Cn1c2ccccc2c(=O)c2c(O)cc3c(c21)CC(C(O)(CO)CO)O3` (centres undefined) [GRAVACRIDONTRIOL], the 50% inhibitory concentration (IC50) result in the assay with HeLa (hela) and with A-431 (a-431) was “Active” throughout.
For the compound `COc1cc2c(c3c1c(=O)c1cc4ccccc4cc1n3C)[C@@H](OC(C)=O)[C@@H](OC(=O)CC(C)C)C(C)(C)O2` (racemic), the “Ratio IC50” value in the assay with L1210 [1] stood at 3.
Regarding `C=C(C)[C@H]1Cc2c(cc(O)c3c(=O)c4ccccc4n(C)c23)O1` [RUTACRIDONE], the IC50 with HeLa (setting [19]), in the assay on MCF7 and with A-431 (setting [20]) was 3000 nM throughout.
For `CCC(=O)O[C@@H]1c2c(cc(OC)c3c(=O)c4cc5ccccc5cc4n(C)c23)OC(C)(C)[C@@H]1OC(=O)CC` (racemic), in the assay on L1210 [1], the “Ratio IC50” value was 3.
With `COc1cc2c(c3c1c(=O)c1cc4ccccc4cc1n3C)C[C@H]([C@]1(C)CO1)O2`, the half-maximal inhibitory concentration (IC50) (in the assay on L1210 [16]; in assay [17]) was 10 nM in each case.
